In patent US20220324815A1, “2-PHENOXY-PYRIMIDINE DERIVATIVES AS HERBICIDAL COMPOUNDS” (SYNGENTA CROP PROTECTION AG, priority 2019, published 2022):

Tests used:
Assay type in all cases: in vivo
Conditions in all cases: 250 g/ha unless otherwise stated, evaluated after 13 days, five-point scale
[1] = tested on: Ipomoea hederacea (IPOHE); assay: Test 1 glasshouse herbicide test, post-emergence application (Table B1)
Protocol: (§1) Seeds of a variety of test species are sown in standard soil in pots (Lolium perenne (LOLPE), Solanum nigrum (SOLNI), Amaranthus retoflexus (AMARE), Setaria faberi (SETFA), Echinochloa crus-galli (ECHCG) and Ipomoea hederacea (IPOHE)). After cultivation for one day (pre-emergence) or after 8 days cultivation (post-emergence) under controlled conditions in a glasshouse (at 24/16° C., day/night; 14 hours light; 65% humidity), the plants are sprayed with an aqueous spray solution derived from the formulation of the technical active ingredient in acetone/water (50:50) solution containing 0.5% Tween 20 (polyoxyethelyene sorbitan monolaurate, CAS RN 9005-64-5). Compounds are applied at 250 g/ha unless otherwise stated. The test plants are then grown in a glasshouse under controlled conditions in a glasshouse (at 24/16° C., day/night; 14 hours light; 65% humidity) and watered twice daily. After 13 days for pre and post-emergence, the test is evaluated for the percentage damage caused to the plant. The biological activities (% phytotoxicity) are shown in Tables B1 and B2 below using a five-point scale (5=81 to 100%; 4=61 to 80%; 3=41 to 60%; 2=21 to 40%; 1=0 to 20%).

[2] = tested on: Echinochloa crus-galli (ECHCG); assay: as above
Protocol: as §1

[3] = tested on: Amaranthus retoflexus (AMARE); assay: as above
Protocol: as §1

Setaria faberi (SETFA) [4] = assay: as above
Protocol: as §1

[5] = tested on: Ipomoea hederacea (IPOHE); assay: Test 1 glasshouse herbicide test, pre-emergence application (Table B2)
Protocol: as §1

[6] = tested on: Echinochloa crus-galli (ECHCG); assay: as above
Protocol: as §1

[7] = tested on: Amaranthus retoflexus (AMARE); assay: as above
Protocol: as §1

Setaria faberi (SETFA) [8] = assay: as above
Protocol: as §1

Structure (SMILES)	% phytotoxicity IPOHE, post-emergence application [1]	% phytotoxicity ECHCG, post-emergence application [2]	% phytotoxicity AMARE, post-emergence application [3]	% phytotoxicity SETFA, post-emergence application (Setaria faberi (SETFA) [4])	% phytotoxicity IPOHE, pre-emergence application [5]	% phytotoxicity ECHCG, pre-emergence application [6]	% phytotoxicity AMARE, pre-emergence application [7]	% phytotoxicity SETFA, pre-emergence application (Setaria faberi (SETFA) [8])
CCC(C)Sc1ccccc1Oc1ncc(Cl)cn1 (racemic) [Compound A65]	3 (3=41 to 60%)	4 (4=61 to 80%)	1 (1=0 to 20%)	3 (3=41 to 60%)	1 (1=0 to 20%)	4 (4=61 to 80%)	3 (3=41 to 60%)	4 (4=61 to 80%)
CCCC(C)CSc1ccccc1Oc1ncc(Cl)cn1 (racemic) [Compound A69]	1 (1=0 to 20%)	4 (4=61 to 80%)	4 (4=61 to 80%)	2 (2=21 to 40%)	1 (1=0 to 20%)	3 (3=41 to 60%)	1 (1=0 to 20%)	4 (4=61 to 80%)
CCCC(C)CS(=O)(=O)c1ccccc1Oc1ncc(Cl)cn1 (racemic) [Compound A74]	1 (1=0 to 20%)	1 (1=0 to 20%)	3 (3=41 to 60%)	1 (1=0 to 20%)	1 (1=0 to 20%)	1 (1=0 to 20%)	1 (1=0 to 20%)	1 (1=0 to 20%)
CCCCS(=O)(=O)c1ccccc1Oc1ncc(Cl)cn1 [Compound A20]	1 (1=0 to 20%)	2 (2=21 to 40%)	2 (2=21 to 40%)	3 (3=41 to 60%)	1 (1=0 to 20%)	4 (4=61 to 80%)	3 (3=41 to 60%)	4 (4=61 to 80%)
CCCCSc1ccccc1Oc1ncc(Cl)cn1 [Compound A21]	3 (3=41 to 60%)	4 (4=61 to 80%)	4 (4=61 to 80%)	4 (4=61 to 80%)	2 (2=21 to 40%)	5 (5=81 to 100%)	4 (4=61 to 80%)	5 (5=81 to 100%)
CCCC[S+]([O-])c1ccccc1Oc1ncc(Cl)cn1 (stereo not drawn) [Compound A22]	2 (2=21 to 40%)	4 (4=61 to 80%)	3 (3=41 to 60%)	4 (4=61 to 80%)	5 (5=81 to 100%)	5 (5=81 to 100%)	4 (4=61 to 80%)	5 (5=81 to 100%)
CCCC(C)Sc1ccccc1Oc1ncc(Cl)cn1 (stereo not drawn) [Compound A33]	1 (1=0 to 20%)	2 (2=21 to 40%)	3 (3=41 to 60%)	2 (2=21 to 40%)	1 (1=0 to 20%)	1 (1=0 to 20%)	1 (1=0 to 20%)	3 (3=41 to 60%)
N#Cc1ccc(CSc2ccccc2Oc2ncc(Cl)cn2)cc1 [Compound A36]	3 (3=41 to 60%)	3 (3=41 to 60%)	5 (5=81 to 100%)	4 (4=61 to 80%)	2 (2=21 to 40%)	4 (4=61 to 80%)	5 (5=81 to 100%)	5 (5=81 to 100%)
Cl/C=C/CSc1ccccc1Oc1ncc(Cl)cn1 [Compound A37]	2 (2=21 to 40%)	2 (2=21 to 40%)	4 (4=61 to 80%)	2 (2=21 to 40%)	1 (1=0 to 20%)	4 (4=61 to 80%)	4 (4=61 to 80%)	3 (3=41 to 60%)
O=S(=O)(C/C=C/Cl)c1ccccc1Oc1ncc(Cl)cn1 [Compound A38]	3 (3=41 to 60%)	1 (1=0 to 20%)	2 (2=21 to 40%)	1 (1=0 to 20%)	1 (1=0 to 20%)	1 (1=0 to 20%)	2 (2=21 to 40%)	1 (1=0 to 20%)
N#Cc1cccc(Oc2ncc(Cl)cn2)c1SCCCCC(F)(F)F [Compound A39]	3 (3=41 to 60%)	5 (5=81 to 100%)	5 (5=81 to 100%)	5 (5=81 to 100%)	2 (2=21 to 40%)	5 (5=81 to 100%)	5 (5=81 to 100%)	5 (5=81 to 100%)
N#Cc1cccc(Oc2ncc(Cl)cn2)c1SCCCCCC(F)(F)F [Compound A40]	3 (3=41 to 60%)	4 (4=61 to 80%)	5 (5=81 to 100%)	4 (4=61 to 80%)	1 (1=0 to 20%)	4 (4=61 to 80%)	5 (5=81 to 100%)	5 (5=81 to 100%)
COCCSc1ccccc1Oc1ncc(Cl)cn1 [Compound A41]	3 (3=41 to 60%)	3 (3=41 to 60%)	3 (3=41 to 60%)	2 (2=21 to 40%)	2 (2=21 to 40%)	2 (2=21 to 40%)	1 (1=0 to 20%)	2 (2=21 to 40%)
COCCS(=O)(=O)c1ccccc1Oc1ncc(Cl)cn1 [Compound A42]	1 (1=0 to 20%)	1 (1=0 to 20%)	2 (2=21 to 40%)	1 (1=0 to 20%)	1 (1=0 to 20%)	1 (1=0 to 20%)	1 (1=0 to 20%)	1 (1=0 to 20%)
CCCCCS(=O)(=O)c1ccccc1Oc1ncc(Cl)cn1 [Compound A43]	1 (1=0 to 20%)	2 (2=21 to 40%)	3 (3=41 to 60%)	2 (2=21 to 40%)	1 (1=0 to 20%)	4 (4=61 to 80%)	5 (5=81 to 100%)	4 (4=61 to 80%)
CCCCCSc1ccccc1Oc1ncc(Cl)cn1 [Compound A44]	1 (1=0 to 20%)	4 (4=61 to 80%)	5 (5=81 to 100%)	2 (2=21 to 40%)	1 (1=0 to 20%)	5 (5=81 to 100%)	5 (5=81 to 100%)	5 (5=81 to 100%)
O=S(=O)(CC(F)(F)F)c1ccccc1Oc1ncc(Cl)cn1 [Compound A78]					1 (1=0 to 20%)	1 (1=0 to 20%)	3 (3=41 to 60%)	1 (1=0 to 20%)
